# Data as given in patent publication US20050124554A1, “Spermidine derivatives for the treatment of chronic neurodegenerative diseases” (priority 2002, published 2005).
# Values joined by “and” are separate entries in the source; they are usually repeats but may differ in a detail not shown here. Equal entries are not always repeated.
# How the values were obtained:
# [1] = test system: superoxide production in organotypic slice cultures (CA1 pyramidal cell layer); test: Superoxide production monitored fluorescently with hydroethidine (HEt); assay type: cell-based, Wistar rat; conditions: 10 μM AMPA alone
# Procedure: Hydroethidine (HEt) has been utilised to fluorescently monitor the production of superoxide in primary neuronal cultures [Bindokas et al., (1996), Carriedo et al. (1998)]. A stock solution of HEt was made was made in N2 sparged DMSO (10 mg ml^−1) which was then aliquoted and stored at −80° C. aliquots were used only once before being discarded. Two separate experimental paradigms were employed to test the effect of L-Arg3,4 on superoxide production in response to either AMPA or NMDA stimulation.
# For the AMA experiments, organotypic slice cultures were loaded with 1 μg ml^−1 HEt in HEPES buffered salt solution (HSS) (in mM): glucose 10, NaCl 144, KCl 5, HEPES 10, MgCl2 1, CaCl2 2, pH 7.4, for 30 minutes in the dark. All subsequent solutions contained HEt to prevent a decrease in signal due to reporter depletion. Images were acquired once per minute for the duration of the experiment on the same system as described above for assessment of cell death. A 10 minute record of baseline superoxide production was produced before the bathing solution was exchanged for HBSS+BEt containing 10 μM AMPA, again for 10 minutes. As shown previously, stimulation of glutamate receptors with AMPA lead to an increase in superoxide production [Bindokas et al., (1996), Carriedo et al. (1998)]. The bathing solution was then exchanged for HBSS+HEt containing both 10 μM AMPA and 300 μM L-Arg3,4 for 10 minutes to test the effect of L-Arg3,4 on superoxide production. In separate control experiments, 300 μM L-Arg3,4 in HSS was incubated with slices to determine if it affected baseline superoxide production on its own.
# Acquired images from the AMPA experiments were then analysed with the OpenLab image analysis package. A region of interest was drawn around the CA1 pyramidal cell layer because this was the cell layer that produced the largest increase in fluorescence in response to AMPA activation. In each image, within the region of interest, the average pixel value was calculated in arbitrary units (AU) to produce a record of fluorescence intensity values over time. A linear regression was then performed on the data to calculate the rate of superoxide production as change in intensity over time (arbitrary units per minute, AU min^−1) for each of the treatments. Data is presented as mean±s.d. Rates of superoxide production were then compared by ANOVA followed by post-hoc comparisons with Bonferroni corrections with significance indicated as * for P<0.05 and ** for P<0.01.
# models of excitotoxicity = conditions: Hartley & Choi 1989; cited from earlier work
# [2] = test system: acute hippocampal slices (CA1 pyramidal cell layer, Schaffer collateral stimulation); test: Electrophysiology: evoked field responses / synaptic transmission; set-up: species or system Sprague-Dawley rats
# Source text: All animal procedures to produce acute hippocampal slices were approved by the Home Office. Male, 250 g, Sprague-Dawley rats were deeply anaesthetised with halothane and decapitated. The brain was quickly removed, and the hippocampi dissected out and then cut into 300 μm thick transverse slices on a vibratome (Leica, Milton Keynes, UK) in cold cutting solution (in mM: 189 sucrose, 2.5 KCl, 26 NaHCO3, 1.2 NaH2PO4, 10 glucose, 5 MgCl2, 0.1 CaCl2) equilibrated with 5% CO2, 95% O2. Slices were transferred to aCSF (in mM: 10 glucose, 125 NaCl, 5 KCl, 26 NaHCO3, 1 MgCl2, 1.25 NaH2PO4, 2 CaCl2, 10 sucrose) at room temperature, bubbled with 5% CO2 and 95% O2, for at least 1 h before use.
# Slices were then transferred to a submerged perfusion chamber (2 ml volume) for the electrophysiological recordings and were perfused at 10 ml min^−1 at 25° C. with aCSF equilibrated with 5% CO2 and 95% O2, and allowed to equilibrate for 1 h before manipulations were started. Experimental compounds were applied by bath perfusion. L-Arg3,4 was applied at 300 μM and DNQX was applied at 10 μM final concentration. DNQX was diluted from a 40 mM stock in DMSO (final DMSO of 0.025%). The Schaffer collaterals of CA3 were stimulated at voltages from 0 to 30 V with a constant voltage stimulator (Digitimer, Hertfordshire, UK) via a twisted pair stimulating electrode of polyimide coated stainless steel wire (Plastics One, Roanoke, Va.). Field potential responses were recorded with an Axopatch 200B amplifier (Axon Instruments, Foster City, Calif.) in the fast current clamp mode via a 2M KCl filled glass electrode (2-5 MQ) in the CA1 pyramidal cell layer. Responses were filtered at 2 kHz, digitised at 20 kHz with a Digidata 1320A (Axon Instruments), and stored onto hard disk with Clampex 8.1 software (Axon Instruments) running on a Dell Pentium III PC. Data was analysed in Clampfit 8.1 (Axon Instruments).
# Stimulus-response (S/R) curves were generated from stimuli from 0 to 30 V in 2 V increments. Bath perfusion of 300 μM L-Arg3,4 in aCSF was applied for 10 min with a sub-maximal stimulus applied every minute to monitor synaptic transmission. A second S/R curve was generated before the perfusion was switched back to plain aCSF. A sub-maximal stimulus was applied every minute during the 15 min wash period after which a third SIR curve was generated. Perfusion of 10 μM DNQX was then started until the response to the sub-maximal stimulus was completely eliminated which always occurred within 10 min. […] In Clampfit, S/R curves were fit to a sigmoidal function of the form: [formula] where R is the magnitude of the evoked response, Rmax is the maximum response, V50 is the voltage which produces a half maximal response, S is the stimulus voltage, and m is proportional to the slope of the linear region of the sigmoid. Data was compared by one way ANOVA.
structure (smiles),measurement,setting,value
"Cc1o[nH]c(=O)c1CC(N)C(=O)O (centres unmarked) [AMPA, reference compound]",increase of rate of superoxide production over baseline,[1],approximately 5 fold
same,rate of superoxide production,[1],10.65±3.70 AU min-1
N[C@H](CCCP(=O)(O)O)C(=O)O [D-APV],delay of administration at which effectiveness is lost (therapeutic window),models of excitotoxicity,30 min
"O=c1[nH]c2cc([N+](=O)[O-])c([N+](=O)[O-])cc2[nH]c1=O [DNQX, 6,7-Dinitroquinoxaline-2,3(1H,4H)-dione, reference compound]",time to complete elimination of response / synaptic transmission,"[2]; 10 μM, all slices",≤ 10 min
same,time to elimination of all transmission,"[2]; 10 μM, single slice, sub-maximal stimulus",≤ 5 min
same,effect on evoked responses,"[2]; bath application, L-Arg3,4 300 μM, DNQX 10 μM",blocked the evoked response completely
C[C@]12N[C@H](Cc3ccccc31)c1ccccc12 [MK-801],delay of administration at which effectiveness is lost (therapeutic window),models of excitotoxicity,30 min and 15 min
COc1ccc2c(c1)[C@]13CCCC[C@@H]1[C@H](C2)N(C)CC3 [dextromethorphan],delay of administration at which effectiveness is lost (therapeutic window),models of excitotoxicity,30 min
